Measured values published in patent US12297201B2, “Substituted pyrrolo[2,3-d]pyrimidines as antimicrobials” (BIOVERSYS AG, priority 2018, dated 2025).

tested on: Staphylococcus aureus (S. aureus) 11540 strain; test: standard microdilution assay to determine MIC against S. aureus; type: cell-based
Method: (§1) The in vitro activity of the compounds of the present disclosure can be determined. Antimicrobial testing is typically performed to determine the minimum inhibitory concentration (MIC). Minimum inhibitory concentrations (MICs) are determined by the microdilution method in a final volume of 100 μl according to protocols outlined by The Clinical and Laboratory Standards Institute (CLSI). Performance standards for reference strains are assessed within the same experimental design to maintain quality control. See, for example, Clinical Laboratory Standards Institute: Methods for dilution antimicrobial susceptibility tests for bacteria that grow aerobically M7-A8. Approved Standard-Eighth Edition. Wayne, Pa.: CLSI; December 2008; and Clinical Laboratory Standards Institute: Performance Standards for Antimicrobial Susceptibility Testing M100-S20; Approved Standard-Twentieth Edition. Wayne, Pa.: CLSI; June 2010. The compounds of the present disclosure were tested for antimicrobial activity. The Compounds 1-105 were run against Escherichia coli (E. coli) strain ATCC25922 and against Staphylococcus aureus (S. aureus) 11540 strain using a standard microdilution assay to determine minimum inhibitory concentrations (MICs). […] It will be recognized by one skilled in the art that the compounds can be assessed against other bacterial organisms and that the presentation of data for activity against Escherichia coli and Staphylococcus aureus are illustrative and in no way is intended to limit the scope of the present disclosure. The compounds of the present disclosure can be assayed against a range of other microorganisms depending upon the performance activity desired to be gathered. Furthermore, the “+” and “−” representation and the selection of a cutoff value of 16 micrograms/mL is also illustrative and in no way is intended to limit the scope of the present disclosure.

Compound	MIC [µg/mL]
CCN1[C@H](CCOC(=N)N)CCC[C@H]1c1ccc(-n2cc3cc(-c4cc(CCC[C@H](C)N)cc(Cl)c4F)[nH]c3nc2=O)cc1 [Compound 14]	≤ 16
C=CCN1[C@H](CCOC(=N)N)CCC[C@H]1c1ccc(-n2cc3cc(-c4cc(CCC[C@H](C)N)cc(Cl)c4F)[nH]c3nc2=O)cc1 [Compound 13]	≤ 16
C[C@H](N)CCCc1cc(Cl)c(F)c(-c2cc3cn(-c4ccc([C@@H]5CCC[C@@H](CCOC(=N)N)N5CCF)cc4)c(=O)nc3[nH]2)c1 [Compound 5]	≤ 16
COCCN1[C@H](CCOC(=N)N)CCC[C@H]1c1ccc(-n2cc3cc(-c4cc(CCC[C@H](C)N)cc(Cl)c4F)[nH]c3nc2=O)cc1 [Compound 6]	≤ 16
C[C@H](N)CCCc1cc(Cl)c(F)c(-c2cc3cn(-c4ccc([C@@H]5CCC[C@@H](CCOC(=N)N)N5CCCF)cc4)c(=O)nc3[nH]2)c1 [Compound 3]	≤ 16
C[C@H](N)CCCc1cc(Cl)c(F)c(-c2cc3cn(-c4ccc([C@@H]5CCC[C@@H](CCOC(=N)N)N5CCCO)cc4)c(=O)nc3[nH]2)c1 [Compound 12]	≤ 16
CCCN1[C@H](CCOC(=N)N)CCC[C@H]1c1ccc(-n2cc3cc(-c4cc(CCC[C@H](C)N)cc(Cl)c4F)[nH]c3nc2=O)cc1 [Compound 7]	≤ 16
C[C@H](N)CCCc1cc(Cl)c(F)c(-c2cc3cn(-c4ccc([C@@H]5CCC[C@@H](CCOC(=N)N)N5C)cc4)c(=O)nc3[nH]2)c1 [Compound 2]	≤ 16
C[C@H](N)CCCc1cc(Cl)c(F)c(-c2cc3cn(-c4ccc([C@@H]5CCC[C@@H](CCOC(=N)N)N5CCCSC(=N)N)cc4)c(=O)nc3[nH]2)c1 [Compound 15]	≤ 16
C[C@H](N)CCCc1cc(Cl)c(F)c(-c2cc3cn(-c4ccc([C@@H]5CCC[C@@H](CCOC(=N)N)N5CCC5CCOCC5)cc4)c(=O)nc3[nH]2)c1 [Compound 4]	≤ 16

Second part, the compound after the results:

MIC [µg/mL]	Compound
≤ 16	CN1[C@H](CCOC(=N)N)CCC[C@H]1c1ccc(-n2cc3cc(-c4cc(CCC[C@@H](N)COC(=N)N)cc(Cl)c4F)[nH]c3nc2=O)cc1 [Compound 19]
≤ 16	COC(=N)NCC[C@@H]1CCC[C@@H](c2ccc(-n3cc4cc(-c5cc(CCC[C@H](C)N)cc(Cl)c5F)[nH]c4nc3=O)cc2)N1 [Compound 20]
≤ 16	COC(=O)CN1[C@H](CCOC(=N)N)CCC[C@H]1c1ccc(-n2cc3cc(-c4cc(CCC[C@H](C)N)cc(Cl)c4F)[nH]c3nc2=O)cc1 [Compound 11]
≤ 16	CC(C)CN1[C@H](CCOC(=N)N)CCC[C@H]1c1ccc(-n2cc3cc(-c4cc(CCC[C@H](C)N)cc(Cl)c4F)[nH]c3nc2=O)cc1 [Compound 10]
≤ 16	CN1[C@H](CCOC(=N)N)CCC[C@H]1c1ccc(-n2cc3cc(-c4cc(CCC[C@@H](N)C5CC5)cc(Cl)c4F)[nH]c3nc2=O)cc1 [Compound 17]
≤ 16	CSCCN1[C@H](CCOC(=N)N)CCC[C@H]1c1ccc(-n2cc3cc(-c4cc(CCC[C@H](C)N)cc(Cl)c4F)[nH]c3nc2=O)cc1 [Compound 8]
≤ 16	C[C@H](N)CCCc1cc(Cl)c(F)c(-c2cc3cn(-c4ccc([C@@H]5CCC[C@@H](CCOC(=N)N)N5CCC5CC5)cc4)c(=O)nc3[nH]2)c1 [Compound 9]
≤ 16	C[C@H](N)CCCc1cc(Cl)c(F)c(-c2cc3cn(-c4ccc([C@@H]5CCC[C@@H](CCOC(=N)N)N5C5CC5)cc4)c(=O)nc3[nH]2)c1 [Compound 16]
≤ 16	C=C[C@H](N)CCCc1cc(Cl)c(F)c(-c2cc3cn(-c4ccc([C@@H]5CCC[C@@H](CCOC(=N)N)N5C)cc4)c(=O)nc3[nH]2)c1 [Compound 18]

tested on: Escherichia coli (E. coli) strain ATCC25922; test: standard microdilution assay to determine MIC against E. coli; type: cell-based
Method: as §1

Compound	MIC [µg/mL]
CCN1[C@H](CCOC(=N)N)CCC[C@H]1c1ccc(-n2cc3cc(-c4cc(CCC[C@H](C)N)cc(Cl)c4F)[nH]c3nc2=O)cc1 [Compound 14]	≤ 16
C=CCN1[C@H](CCOC(=N)N)CCC[C@H]1c1ccc(-n2cc3cc(-c4cc(CCC[C@H](C)N)cc(Cl)c4F)[nH]c3nc2=O)cc1 [Compound 13]	≤ 16
C[C@H](N)CCCc1cc(Cl)c(F)c(-c2cc3cn(-c4ccc([C@@H]5CCC[C@@H](CCOC(=N)N)N5CCF)cc4)c(=O)nc3[nH]2)c1 [Compound 5]	≤ 16
COCCN1[C@H](CCOC(=N)N)CCC[C@H]1c1ccc(-n2cc3cc(-c4cc(CCC[C@H](C)N)cc(Cl)c4F)[nH]c3nc2=O)cc1 [Compound 6]	≤ 16
C[C@H](N)CCCc1cc(Cl)c(F)c(-c2cc3cn(-c4ccc([C@@H]5CCC[C@@H](CCOC(=N)N)N5CCCF)cc4)c(=O)nc3[nH]2)c1 [Compound 3]	≤ 16
C[C@H](N)CCCc1cc(Cl)c(F)c(-c2cc3cn(-c4ccc([C@@H]5CCC[C@@H](CCOC(=N)N)N5CCCO)cc4)c(=O)nc3[nH]2)c1 [Compound 12]	≤ 16
CCCN1[C@H](CCOC(=N)N)CCC[C@H]1c1ccc(-n2cc3cc(-c4cc(CCC[C@H](C)N)cc(Cl)c4F)[nH]c3nc2=O)cc1 [Compound 7]	≤ 16
C[C@H](N)CCCc1cc(Cl)c(F)c(-c2cc3cn(-c4ccc([C@@H]5CCC[C@@H](CCOC(=N)N)N5C)cc4)c(=O)nc3[nH]2)c1 [Compound 2]	≤ 16
C[C@H](N)CCCc1cc(Cl)c(F)c(-c2cc3cn(-c4ccc([C@@H]5CCC[C@@H](CCOC(=N)N)N5CCCSC(=N)N)cc4)c(=O)nc3[nH]2)c1 [Compound 15]	≤ 16
C[C@H](N)CCCc1cc(Cl)c(F)c(-c2cc3cn(-c4ccc([C@@H]5CCC[C@@H](CCOC(=N)N)N5CCC5CCOCC5)cc4)c(=O)nc3[nH]2)c1 [Compound 4]	≤ 16

Next, values leading:

MIC [µg/mL]	Compound
≤ 16	CN1[C@H](CCOC(=N)N)CCC[C@H]1c1ccc(-n2cc3cc(-c4cc(CCC[C@@H](N)COC(=N)N)cc(Cl)c4F)[nH]c3nc2=O)cc1 [Compound 19]
≤ 16	COC(=N)NCC[C@@H]1CCC[C@@H](c2ccc(-n3cc4cc(-c5cc(CCC[C@H](C)N)cc(Cl)c5F)[nH]c4nc3=O)cc2)N1 [Compound 20]
≤ 16	COC(=O)CN1[C@H](CCOC(=N)N)CCC[C@H]1c1ccc(-n2cc3cc(-c4cc(CCC[C@H](C)N)cc(Cl)c4F)[nH]c3nc2=O)cc1 [Compound 11]
≤ 16	CC(C)CN1[C@H](CCOC(=N)N)CCC[C@H]1c1ccc(-n2cc3cc(-c4cc(CCC[C@H](C)N)cc(Cl)c4F)[nH]c3nc2=O)cc1 [Compound 10]
≤ 16	CN1[C@H](CCOC(=N)N)CCC[C@H]1c1ccc(-n2cc3cc(-c4cc(CCC[C@@H](N)C5CC5)cc(Cl)c4F)[nH]c3nc2=O)cc1 [Compound 17]
≤ 16	CSCCN1[C@H](CCOC(=N)N)CCC[C@H]1c1ccc(-n2cc3cc(-c4cc(CCC[C@H](C)N)cc(Cl)c4F)[nH]c3nc2=O)cc1 [Compound 8]
≤ 16	C[C@H](N)CCCc1cc(Cl)c(F)c(-c2cc3cn(-c4ccc([C@@H]5CCC[C@@H](CCOC(=N)N)N5CCC5CC5)cc4)c(=O)nc3[nH]2)c1 [Compound 9]
≤ 16	C[C@H](N)CCCc1cc(Cl)c(F)c(-c2cc3cn(-c4ccc([C@@H]5CCC[C@@H](CCOC(=N)N)N5C5CC5)cc4)c(=O)nc3[nH]2)c1 [Compound 16]
≤ 16	C=C[C@H](N)CCCc1cc(Cl)c(F)c(-c2cc3cn(-c4ccc([C@@H]5CCC[C@@H](CCOC(=N)N)N5C)cc4)c(=O)nc3[nH]2)c1 [Compound 18]
